In publication PMC12736141, “New Quinazolin-4(3H)-one Derivatives as Potential Antitumoral Compounds: Synthesis, In Vitro Cytotoxicity Against the HepG2 Cell Line, and In Silico VEGFR-2 Targeting-Based Studies” (Molecules, 2025):

Columns and labels:
[1] = system: human foreskin fibroblasts (BJ); assay: MTT cytotoxicity assay on BJ cells; format: cell-based; conditions: 48 h; for cytotoxicity on BJ cell line (in words) / IC50: BJ cells; for IC50: Homo sapiens, MTT
Protocol: (§1) Compounds 5a–c were dissolved in dimethylsulfoxide (DMSO) at an initial concentration of 10 mM, which was diluted 10 times with the characteristic medium and placed on plates at final concentrations ranging from 12.5 to 150 μM. The cells were seeded on plates of 96 wells at a density of 1 × 10^4 cells per well and incubated for 48 h. The culture medium was removed, and then 100 µL MTT (3-(4,5-dimethylthiazol-2-yl)-2,5-diphenyltetrazolium bromide) was added for 1 h. After that, it was removed, and 150 µL of pure dimethylsulfoxide (DMSO) was added. The samples were read using an ELISA Reader (BioTek, Winooski, VT, USA) at 570 nm. […] All determinations were made in triplicate.
(§2) The half-maximal inhibitory concentration (IC50) values were calculated to evaluate the potency of compounds 5a–c by fitting the investigational data with a 4-parameter logistic curve to obtain the dose-effect curves. The experimental IC50 results are expressed as mean values ± standard deviation (SD) of the three biological replicates.
(§3) Two-way analysis of variance (ANOVA) with a post hoc Bonferroni test was used to statistically examine the relative cell viability (%), compared to the negative control (NC), which was 100%. Data were analyzed using the […] software (GraphPad Prism 8.0.2. Software, La Jolla, CA, USA). In terms of statistical analysis, the results were considered different at values of p < 0.05 or p < 0.001.

[2] = In vitro lipophilicity by RP-TLC; format: physicochemical; conditions: for PC2 / PC1: PCA score on RM values; for PC1: lower value = more lipophilic; for RM / Rf / mRM / RM0 / b / lipophilicity ranking (in words): RP-TLC; for mRM: arithmetic mean of RM values; for RM0: extrapolation of RM to 0% organic modifier; for b: slope of the line RM = f(c); for lipophilicity ranking (in words): within series 5a–c
Protocol: The chromatographic performance of compounds 5a–c was investigated by reverse-phase thin-layer chromatography (RP-TLC). Standardized Silica gel 60 RP-18 F254S chromatographic plates (20 × 10 cm, Merck, Darmstadt, Germany) were used as the stationary phase, and an i-propanol–water mixture, in volumetric proportions ranging from 40% to 60% (v/v) i-propanol, was used as the mobile phase. The variance between two successive elution mixtures was 5%.
Solutions containing 1 mg/mL of compounds 5a–c were prepared in dimethylsulfoxide (DMSO). A volume equal to 2 μL of each sample was manually applied using chromatographic capillary micropipettes, at a distance of 10 mm from the lower side of the plates and 10 mm from their lateral sides. The gap between two successive spots was 10 mm.
The development process was carried out at room temperature using a chromatographic chamber pre-saturated for 30 min with mobile-phase vapors. The migration distance of the mobile phase was 80 mm for all concentrations used, and it was determined manually by calculating the retention factor Rf; thus, Rf = migration distance of the compound/migration distance of the mobile phase. Rf values were calculated for each tested compound at all five concentrations of the mobile phase.
The spots were visualized under UV light at a wavelength of 254 nm.
Starting from the Rf values determined by RP-TLC, a series of lipophilicity parameters was calculated. Therefore, based on the Bate-Smith and Westall equation, the logarithmic RM values were obtained:RM = log [1/Rf−1](2)
Based on the linear relationship between the RM value and the concentration of the organic solvent in the mobile phase [c], using the linear regression equation and the Soczewinski–Wachtmeister model (where b = slope of the line and c = concentration of organic modifier), the values of another lipophilicity parameter, RM0, were determined by extrapolating the RM values to 0% organic modifier:RM = RM0 + b[c](3)
The arithmetic mean of the lipophilicity parameter RM values, corresponding to a series of concentrations of the organic modifier in the mobile phase, was determined. Therefore, the mRM lipophilicity parameter was obtained.
Applying principal component analysis (PCA, XL-STAT) to the lipophilicity parameter RM, new lipophilicity parameters represented by the principal components (PCs) were obtained.
Starting from the experimentally determined Rf values, the RM logarithmic values were calculated. Consequently, the presence of minor errors in determining the Rf values can generate errors in calculating the RM values. By analyzing the principal components, the errors in estimating the RM0 values are eliminated through extrapolation, thereby providing more precise results.

[3] = system: human hepatocellular carcinoma (HepG2); assay: MTT cytotoxicity assay on HepG2 cells; format: cell-based; conditions: for IC50: Homo sapiens, HepG2 cells, MTT; for IC50 / Selectivity Index (SI): 48 h; for Selectivity Index (SI): SI = IC50 BJ/IC50 HepG2
Protocol: as §1, §2, §3
The selectivity index (SI) was used as a parameter to determine how many times more cytotoxic the investigated compounds were by exposing them to normal and cancer cells. It was calculated using the IC50 value ratio between the BJ cell line and the HepG2 cell line, both obtained from ATCC (Manassas, VA, USA). Results that are greater than 2 are considered suitable, as reported in the literature.

[4] = In vitro lipophilicity by RP-HPLC; format: physicochemical; conditions: logarithm of the capacity factor
Protocol: The chromatographic behavior of compounds 5a–c was also examined by high-performance liquid chromatography coupled with mass spectrometry (HPLC-MS). The analyses were conducted using an Agilent 1100 series HPLC system (binary pump, autosampler, thermostat, UV detector, Agilent Technologies, USA) coupled to a Bruker Ion Trap SL system (Bruker Daltonics GmbH). Chromatographic separation was completed using a Zorbax SB-C18 column (50 mm × 2.1 mm i.d., 3.5 μm, Agilent Technologies). The mobile phase consisted of a mixture of water with 0.1% (v/v) acetic acid and acetonitrile. The elution gradient started at 15% acetonitrile and increased to 95% within 5 min. The flow rate was 0.6 mL/min, and the thermostat was set at 45 °C. UV detection was performed at 242 nm. Based on the retention times obtained, the capacity factor k was calculated using formula […], where tR = retention time of the compound and t0 = retention time of the solvent:k = (tR − t0)/t0,(4)
The logarithm of the capacity factor (log k) was used to estimate the lipophilicity of the compounds [71]. The RP-HPLC method has multiple advantages, including low sample requirements, good accuracy of determinations, fast analysis, and high reproducibility.

[5] = Isopropanol–Water 40:60 (v:v %)
[6] = Isopropanol–Water 45:55 (v:v %)
[7] = Isopropanol–Water 50:50 (v:v %)
[8] = Isopropanol–Water 55:45 (v:v %)
[9] = Isopropanol–Water 60:40 (v:v %)

SMILES | cytotoxicity on BJ cell line (in words) [1] | IC50 [1] [µM] | PC2 [2] | PC1 [2] | RM [2, 5] | Rf [2, 5] | RM [2, 6] | Rf [2, 6] | RM [2, 7] | Rf [2, 7] | RM [2, 8] | Rf [2, 8] | RM [2, 9] | Rf [2, 9] | mRM [2] | RM0 [2] | b [2] | IC50 [3] [µM] | log k [4] | lipophilicity ranking (in words) [2] | also measured
C=CCn1c(SCC(=O)c2ccc(O)c(C(N)=O)c2)nc2ccccc2c1=O [5a, 5-(2-((3-allyl-4-oxo-3,4-dihydroquinazolin-2-yl)thio)acetyl)-2-hydroxybenzamide] | less cytotoxic or non-cytotoxic | > 100 | −0.09 | 0.64 | 0.12 | 0.43 | 0.03 | 0.48 | −0.08 | 0.55 | −0.28 | 0.66 | −0.60 | 0.8 | −0.16 | −0.03 | 1.60 | > 50 | 0.93 | – | –
NC(=O)c1cc(C(=O)CSc2nc3ccccc3c(=O)n2Cc2ccccc2)ccc1O [5b, 5-(2-((3-benzyl-4-oxo-3,4-dihydroquinazolin-2-yl)thio)acetyl)-2-hydroxybenzamide] | moderate cytotoxicity | 26.6 ± 1.07 | 0.41 | −2.01 | 0.36 | 0.30 | 0.23 | 0.37 | 0.06 | 0.46 | −0.14 | 0.58 | −0.41 | 0.72 | 0.02 | −0.03 | 1.95 | 24.87 ± 0.19 | 0.99 | The most lipophilic compound | reduction of viability values ([1]; BJ, concentrations higher than 50 and 100 µM): more than 35%; decrease of cell viability ([1]; BJ, concentrations over 25 µM): more than 50%; Selectivity Index (SI) [3]: 1.06
CCn1c(SCC(=O)c2ccc(O)c(C(N)=O)c2)nc2ccccc2c1=O [5c, 5-(2-((3-ethyl-4-oxo-3,4-dihydroquinazolin-2-yl)thio)acetyl)-2-hydroxybenzamide] | moderate cytotoxicity | 34.5 ± 1.09 | −0.31 | 1.37 | 0.05 | 0.47 | −0.01 | 0.51 | −0.14 | 0.58 | −0.32 | 0.68 | −0.62 | 0.81 | −0.21 | −0.03 | 1.46 | 25.46 ± 0.2 | 0.91 | The least lipophilic compound | relative cell viability result (in words) ([1]; BJ, over 37.5 µM): significantly unfavorable; Selectivity Index (SI) [3]: 1.35; reduction in cell viability (in words) ([3]; HepG2, 48 h, over 37.5 µM): important reduction in cell viability
CNC(=O)c1cc(Oc2ccc(NC(=O)Nc3ccc(Cl)c(C(F)(F)F)c3)cc2)ccn1 [Sorafenib, reference compound] | – | 5.11 ± 0.16 | – | – | – | – | – | – | – | – | – | – | – | – | – | – | – | 4.87 ± 0.19 | – | – | cell viability level ([3]; HepG2, 48 h, concentrations exceeding 5 µM): below 50%
